Experimental data as given in PubChem BioAssay AID1963825 (Molecular Pharmacology Branch, DTP, NCI, 2024).

Experiment: Anticancer human tumor 997537-175-T-J1-PDC patient-derived colon adenocarcinoma cell line growth inhibition [POLQ]
Conditions: 997537-175-T-J1-PDC complex spheroid viability, combination with POLQ inhibitors; for IC50: curve of first compound; for viability, T/C: stronger effect = lower value
Method in brief: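 Patient-derived tumour cells were co-cultured with HUVEC and mesenchymal stem cells as multicellular spheroids at 37 °C. They were treated with POLQ inhibitors (novobiocin, ART-558, RP6685) alone or combined with other agents. Top concentrations were at or near clinical Cmax (otherwise 10 microM; SN-38 at 1 microM), decreasing in half-log steps.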

[1] = second compound 0.0316 µM, first compound 0.0316 µM
[2] = second compound 0.0316 µM, first compound 0.1 µM
[3] = second compound 0.1 µM, first compound 0.0316 µM
[4] = second compound 0.1 µM, first compound 0.1 µM
[5] = second compound 0.316 µM, first compound 0.0316 µM
[6] = second compound 0.316 µM, first compound 0.1 µM
[7] = second compound 1 µM, first compound 0.0316 µM
[8] = second compound 1 µM, first compound 0.1 µM
[9] = second compound 3.16 µM, first compound 0.0316 µM
[10] = second compound 3.16 µM, first compound 0.1 µM
[11] = second compound 10 µM, first compound 0.0316 µM
[12] = second compound 10 µM, first compound 0.1 µM
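Note: luminescence signal used as a surrogate for viable cells; spheroids exposed to drugs for seven days before readout.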

Cn1ncnc1[C@H]1c2n[nH]c(=O)c3cc(F)cc(c23)N[C@@H]1c1ccc(F)cc1 + Cc1cccc(N(C)C(=O)C2C(O)CCN2c2nc(C)cc(C(F)(F)F)c2C#N)c1
IC50 (second compound 0.0316 µM): > 0.1 µM
IC50 (second compound 0.1 µM): > 0.1 µM
IC50 (second compound 0.316 µM): > 0.1 µM
IC50 (second compound 1 µM): > 0.1 µM
IC50 (second compound 3.16 µM): > 0.1 µM
IC50 (second compound 10 µM): > 0.1 µM
viability, T/C (second compound 0.0316 µM, first compound 0.000316 µM): 98%
viability, T/C (second compound 0.0316 µM, first compound 0.001 µM): 109%
viability, T/C (second compound 0.0316 µM, first compound 0.00316 µM): 93.5%
viability, T/C (second compound 0.0316 µM, first compound 0.01 µM): 98.6%
viability, T/C [1]: 110%
viability, T/C [2]: 90%
viability, T/C (second compound 0.1 µM, first compound 0.000316 µM): 94.8%
viability, T/C (second compound 0.1 µM, first compound 0.001 µM): 113%
viability, T/C (second compound 0.1 µM, first compound 0.00316 µM): 76.2%
viability, T/C (second compound 0.1 µM, first compound 0.01 µM): 119%
viability, T/C [3]: 113%
viability, T/C [4]: 97.6%
viability, T/C (second compound 0.316 µM, first compound 0.000316 µM): 90.6%
viability, T/C (second compound 0.316 µM, first compound 0.001 µM): 102%
viability, T/C (second compound 0.316 µM, first compound 0.00316 µM): 94.3%
viability, T/C (second compound 0.316 µM, first compound 0.01 µM): 94.6%
viability, T/C [5]: 91.1%
viability, T/C [6]: 91.4%
viability, T/C (second compound 1 µM, first compound 0.000316 µM): 92.6%
viability, T/C (second compound 1 µM, first compound 0.001 µM): 109%
viability, T/C (second compound 1 µM, first compound 0.00316 µM): 96.1%
viability, T/C (second compound 1 µM, first compound 0.01 µM): 100%
viability, T/C [7]: 98.3%
viability, T/C [8]: 84.4%
viability, T/C (second compound 3.16 µM, first compound 0.000316 µM): 105%
viability, T/C (second compound 3.16 µM, first compound 0.001 µM): 109%
viability, T/C (second compound 3.16 µM, first compound 0.00316 µM): 95.6%
viability, T/C (second compound 3.16 µM, first compound 0.01 µM): 91.5%
viability, T/C [9]: 92.1%
viability, T/C [10]: 94.7%
viability, T/C (second compound 10 µM, first compound 0.000316 µM): 102%
viability, T/C (second compound 10 µM, first compound 0.001 µM): 93.1%
viability, T/C (second compound 10 µM, first compound 0.00316 µM): 89.8%
viability, T/C (second compound 10 µM, first compound 0.01 µM): 84.4%
viability, T/C [11]: 84.4%
viability, T/C [12]: 99.3%

CCCS(=O)(=O)Nc1ccc(F)c(C(=O)c2c[nH]c3ncc(-c4ccc(Cl)cc4)cc23)c1F + Cc1cccc(N(C)C(=O)C2C(O)CCN2c2nc(C)cc(C(F)(F)F)c2C#N)c1
IC50 (second compound 0.0316 µM): 4.85 µM
IC50 (second compound 0.1 µM): 5.35 µM
IC50 (second compound 0.316 µM): 5.84 µM
IC50 (second compound 1 µM): 4.49 µM
IC50 (second compound 3.16 µM): 6.65 µM
IC50 (second compound 10 µM): 5.16 µM
viability, T/C [1]: 100%
viability, T/C [2]: 79.5%
viability, T/C (second compound 0.0316 µM, first compound 0.316 µM): 82.5%
viability, T/C (second compound 0.0316 µM, first compound 1 µM): 75.4%
viability, T/C (second compound 0.0316 µM, first compound 3.16 µM): 70.5%
viability, T/C (second compound 0.0316 µM, first compound 10 µM): 22.8%
viability, T/C [3]: 105%
viability, T/C [4]: 91.7%
viability, T/C (second compound 0.1 µM, first compound 0.316 µM): 82.4%
viability, T/C (second compound 0.1 µM, first compound 1 µM): 83%
viability, T/C (second compound 0.1 µM, first compound 3.16 µM): 74.5%
viability, T/C (second compound 0.1 µM, first compound 10 µM): 25.9%
viability, T/C [5]: 105%
viability, T/C [6]: 78%
viability, T/C (second compound 0.316 µM, first compound 0.316 µM): 71.7%
viability, T/C (second compound 0.316 µM, first compound 1 µM): 75.4%
viability, T/C (second compound 0.316 µM, first compound 3.16 µM): 80.8%
viability, T/C (second compound 0.316 µM, first compound 10 µM): 23.1%
viability, T/C [7]: 102%
viability, T/C [8]: 87.4%
viability, T/C (second compound 1 µM, first compound 0.316 µM): 85.9%
viability, T/C (second compound 1 µM, first compound 1 µM): 75.7%
viability, T/C (second compound 1 µM, first compound 3.16 µM): 61.5%
viability, T/C (second compound 1 µM, first compound 10 µM): 29.5%
viability, T/C [9]: 85.7%
viability, T/C [10]: 77%
viability, T/C (second compound 3.16 µM, first compound 0.316 µM): 77.7%
viability, T/C (second compound 3.16 µM, first compound 1 µM): 68%
viability, T/C (second compound 3.16 µM, first compound 3.16 µM): 75.1%
viability, T/C (second compound 3.16 µM, first compound 10 µM): 36.7%
viability, T/C [11]: 92.3%
viability, T/C [12]: 88.9%
viability, T/C (second compound 10 µM, first compound 0.316 µM): 86.1%
viability, T/C (second compound 10 µM, first compound 1 µM): 81.5%
viability, T/C (second compound 10 µM, first compound 3.16 µM): 73.3%
viability, T/C (second compound 10 µM, first compound 10 µM): 20.6%
